Measurements published in patent US20250243488A1, “METHODS OF MODULATING PROGRANULIN EXPRESSION USING ANTISENSE OLIGONUCLEOTIDES TARGETING REGULATORY RNAS” (Camp4 Therapeutics Corporation, priority 2022, published 2025).
Oligonucleotides are written 5' to 3', each unit as a sugar letter and its base; * is a phosphorothioate linkage, no mark a phosphodiester; rarer units and linkages stand in square brackets, end groups in braces. Plain capitals give the bases only. e = 2'-O-(2-methoxyethyl) (MOE); l = locked nucleic acid (LNA); [5mC] = 5-methylcytosine; d = 2'-deoxy (DNA)

Tested on: GRN mRNA
Assay: GRN mRNA qPCR in SK-N-AS cells transfected with ASOs
Assay type: cell-based, human
Conditions: SK-N-AS, normalized to CO-1589; for hGRN mRNA FC / 120 nM FC (GRN mRNA): 120 nM
Outline: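 Human neuroblastoma SK-N-AS cells transfected with ASOs at increasing concentrations (20 to 160 nM in initial titrations); GRN mRNA quantified by qPCR after 48 hours. Normalized to GAPDH and PPIA, fold change relative to steric non-targeting control ASO(s) (sNTC/CO-1589, with CO-3772 and CO-1929 in some series).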

[1] = Table 9, 48 hours post-transfection

CO-6432: ASO designed to target an intragenic enhancer RNA (eRNA) (eG*eA*eG*eA*eA*e[5mC]*eG*e[5mC]*eT*eA*e[5mC]*e[5mC]*eA*e[5mC]*eG*eG*eA*e[5mC]*e[5mC]*eT)
hGRN mRNA FC (Table 11, 48 hours): 1.0 FC

CO-6516: ASO based on parent ASO CO-3462 (antisense eT*eA*eGeGeAeGeAeAeTe[5mC]eGe[5mC]eTeTeT*eG*eG*eG*eA*eG)
30 nM FC (GRN mRNA) (Table 12): 1.0 FC | 60 nM FC (GRN mRNA) (Table 12): 1.4 FC | 120 nM FC (GRN mRNA) (Table 12): 1.0 FC

CO-6430: ASO designed to target an intragenic enhancer RNA (eRNA) (eT*eG*e[5mC]*eG*e[5mC]*eA*e[5mC]*eA*e[5mC]*eA*eG*eG*eT*eA*e[5mC]*e[5mC]*eA*eG*eA*eG)
hGRN mRNA FC (Table 11, 48 hours): 1.0 FC

CO-4609: ASO designed to target intergenic enhancers (eRNA) (antisense e[5mC]*e[5mC]*eA*eA*eT*eA*eA*eA*eG*e[5mC]*e[5mC]*eT*eT*eG*eG*eG*eT*eG*e[5mC]*e[5mC])
hGRN mRNA FC [1]: 1.2 FC

CO-4621: ASO designed to target intergenic enhancers (eRNA) (antisense e[5mC]*eG*e[5mC]*eT*eG*e[5mC]*eT*eG*eT*eT*eT*eG*eG*eA*eA*e[5mC]*eG*eA*eG*eT)
hGRN mRNA FC [1]: 1.2 FC

CO-6426: ASO based on parent ASOs CO-4363 and CO-4364 (eG*eG*eA*e[5mC]*eT*eT*eG*eG*eG*eA*eG*eT*eG*eG*eT*eG*eA*e[5mC]*eT*eG*eA*eA*e[5mC]*e[5mC])
30 nM FC (GRN mRNA) (Table 13): 0.8 FC | 60 nM FC (GRN mRNA) (Table 13): 1.5 FC | 120 nM FC (GRN mRNA) (Table 13): 1.3 FC

CO-4635: ASO designed to target intergenic enhancers (eRNA) (antisense eG*eT*eT*eT*eG*e[5mC]*eA*eA*eT*eT*e[5mC]*eT*e[5mC]*eA*eG*eA*e[5mC]*e[5mC]*eT*eG)
hGRN mRNA FC [1]: 1.0 FC

CO-4587: ASO designed to target intergenic enhancers (eRNA) (antisense eT*eT*e[5mC]*eT*eA*eA*eA*e[5mC]*eG*e[5mC]*eG*eA*eA*eG*eT*eG*eG*eG*eT*eG)
hGRN mRNA FC [1]: 1.2 FC

CO-4614: ASO designed to target intergenic enhancers (eRNA) (antisense eT*eG*eA*e[5mC]*eT*eA*eG*eA*eG*eA*eA*eA*e[5mC]*eG*e[5mC]*eT*eT*eA*eG*eA)
hGRN mRNA FC [1]: 1.2 FC

CO-6515: ASO based on parent ASO CO-3462 (antisense eT*eA*eGeGeAeGeAeAeTe[5mC]eGe[5mC]eT*eT*eT*eG*eG*eG*eA*eG)
30 nM FC (GRN mRNA) (Table 12): 1.2 FC | 60 nM FC (GRN mRNA) (Table 12): 1.8 FC | 120 nM FC (GRN mRNA) (Table 12): 1.7 FC

CO-6401: ASO based on parent ASO CO-3462 (antisense eG*eT*eA*eG*eG*dA*dG*dA*eA*dT*d[5mC]*dG*d[5mC]*eT*dT*dT*dG*eG*eG*eA*eG*e[5mC])
30 nM FC (GRN mRNA) (Table 12): 1.2 FC | 60 nM FC (GRN mRNA) (Table 12): 1.5 FC | 120 nM FC (GRN mRNA) (Table 12): 1.7 FC

CO-4645: ASO designed to target intergenic enhancers (eRNA) (antisense eA*e[5mC]*eA*eG*e[5mC]*eA*eG*eA*eA*e[5mC]*eA*eT*e[5mC]*e[5mC]*e[5mC]*eG*eT*eG*eA*eA)
hGRN mRNA FC [1]: 1.4 FC

CO-4651: ASO designed to target intergenic enhancers (eRNA) (antisense eT*eA*eG*eG*e[5mC]*eA*e[5mC]*e[5mC]*e[5mC]*eA*eA*eG*eG*e[5mC]*eT*eT*eT*eA*eT*eT)
hGRN mRNA FC [1]: 1.3 FC

CO-4607: ASO designed to target intergenic enhancers (eRNA) (antisense eA*eA*eG*eA*eA*eA*eT*eA*eG*eA*eT*eT*eA*e[5mC]*e[5mC]*e[5mC]*e[5mC]*eG*eT*eT)
hGRN mRNA FC [1]: 1.1 FC

CO-6403: ASO based on parent ASO CO-3462 (antisense eG*eG*eT*eA*eG*eG*eA*dG*dA*dA*dT*d[5mC]*dG*d[5mC]*dT*dT*dT*eG*eG*eG*eA*eG*e[5mC]*eA)
30 nM FC (GRN mRNA) (Table 12): 1.6 FC | 60 nM FC (GRN mRNA) (Table 12): 2.2 FC | 120 nM FC (GRN mRNA) (Table 12): 2.4 FC

CO-4640: ASO designed to target intergenic enhancers (eRNA) (antisense eG*e[5mC]*e[5mC]*e[5mC]*e[5mC]*e[5mC]*eT*eA*eG*eA*eG*eG*eA*e[5mC]*eA*eT*eT*eT*eT*eT)
hGRN mRNA FC [1]: 1.0 FC

CO-4592: ASO designed to target intergenic enhancers (eRNA) (antisense eG*eG*eT*e[5mC]*eA*e[5mC]*eA*eG*eA*eT*eT*eG*e[5mC]*eA*e[5mC]*eT*e[5mC]*eT*e[5mC]*e[5mC])
hGRN mRNA FC [1]: 1.1 FC

CO-4590: ASO designed to target intergenic enhancers (eRNA) (antisense eG*eT*e[5mC]*eA*eA*eA*eG*eT*e[5mC]*eG*eA*eG*eG*e[5mC]*e[5mC]*eT*eA*e[5mC]*e[5mC]*e[5mC])
hGRN mRNA FC [1]: 1.3 FC

CO-4634: ASO designed to target intergenic enhancers (eRNA) (antisense eT*eT*eT*eA*e[5mC]*e[5mC]*e[5mC]*eA*eT*eA*eT*eA*e[5mC]*e[5mC]*e[5mC]*eA*e[5mC]*eA*e[5mC]*e[5mC])
hGRN mRNA FC [1]: 1.1 FC

CO-4646: ASO designed to target intergenic enhancers (eRNA) (antisense eG*eT*eG*eT*eG*eA*eA*eA*eT*eG*eA*eT*eG*eG*eT*eA*e[5mC]*e[5mC]*eA*eG)
hGRN mRNA FC [1]: 1.3 FC

CO-6523: ASO based on parent ASO CO-3462 (antisense eT*eA*eG*eG*eA*eG*eA*eA*eT*e[5mC]*eG*e[5mC]*eT*eTeTeGeGeG*eA*eG)
30 nM FC (GRN mRNA) (Table 12): 2.9 FC | 60 nM FC (GRN mRNA) (Table 12): 1.4 FC | 120 nM FC (GRN mRNA) (Table 12): 1.3 FC

CO-4638: ASO designed to target intergenic enhancers (eRNA) (antisense eT*eT*eG*eA*eT*eA*eG*eA*eT*eG*eG*e[5mC]*eA*eG*eG*eT*e[5mC]*eA*eG*eG)
hGRN mRNA FC [1]: 1.0 FC

CO-6421: ASO based on parent ASOs CO-4363 and CO-4364 (eG*eG*eA*e[5mC]*eT*lT*eG*eG*eG*eA*eG*lT*eG*eG*eT*eG*eA*l[5mC]*eT*eG*eA*eA*e[5mC])
30 nM FC (GRN mRNA) (Table 13): 1.3 FC | 60 nM FC (GRN mRNA) (Table 13): 2.1 FC | 120 nM FC (GRN mRNA) (Table 13): 1.7 FC

CO-6455: ASO designed to target an intragenic enhancer RNA (eRNA) (e[5mC]*eT*e[5mC]*eA*eT*eT*eG*eA*e[5mC]*eT*e[5mC]*e[5mC]*eA*eA*eG*eT*eG*eT*eA*eG)
hGRN mRNA FC (Table 11, 48 hours): 0.9 FC

CO-6517: ASO based on parent ASO CO-3462 (antisense eT*eA*eGeGeAeGeAeAeTe[5mC]eGe[5mC]eTeTeTeGeG*eG*eA*eG)
30 nM FC (GRN mRNA) (Table 12): 1.2 FC | 60 nM FC (GRN mRNA) (Table 12): 2.3 FC | 120 nM FC (GRN mRNA) (Table 12): 2.0 FC

CO-4602: ASO designed to target intergenic enhancers (eRNA) (antisense eT*eA*e[5mC]*eT*e[5mC]*e[5mC]*eT*eA*eG*e[5mC]*e[5mC]*eT*eG*e[5mC]*eG*e[5mC]*e[5mC]*eT*eT*eT)
hGRN mRNA FC [1]: 1.2 FC

CO-6400: ASO based on parent ASO CO-3462 (antisense eG*eT*eA*eG*eG*eA*eG*eA*eA*eT*e[5mC]*eG*e[5mC]*eT*eT*eT*eG*eG*eG*eA*eG*e[5mC])
30 nM FC (GRN mRNA) (Table 12): 1.1 FC | 60 nM FC (GRN mRNA) (Table 12): 1.3 FC | 120 nM FC (GRN mRNA) (Table 12): 1.3 FC
